Measurements from the supplement of paper PMC10307832.

What was measured:
Assay in all cases: relative viability (nuclei count vs DMSO), 5 days (fraction); higher = more cells survive
[1] = compound: CC(C)CCN1c2nc(Nc3cc(F)c(O)c(F)c3)ncc2N(C)C(=O)C1C [BI-D1870] + C[C@@H](Oc1cc(-c2cnn(C3CCNCC3)c2)cnc1N)c1c(Cl)ccc(F)c1Cl [Crizotinib] (partner 1 µM)
In short: (§1)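 After 5 days of treatment, lung cancer cells in 1536-well plates were fixed and stained in a single step (final 0.05% Triton X-100, 1% formaldehyde, 1 ug/ml Hoechst) and their nuclei counted on 4× images. Treatment had been applied by pin tool the day after seeding as one drug alone or as a fixed anchor-drug dose with five library-drug doses (not always all listed) in √10 steps. Relative viability is the nuclei count of treated wells divided by that of vehicle wells, and values are medians of duplicate plates.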

[2] = compound: CC(C)CCN1c2nc(Nc3cc(F)c(O)c(F)c3)ncc2N(C)C(=O)C1C [BI-D1870] + Nc1ncn([C@H]2C[C@H](O)[C@@H](CO)O2)c(=O)n1 [Decitabine] (partner 2 µM)
In short: as §1

[3] = compound: O=c1ncccn1[C@@H]1O[C@H](CO)[C@@H](O)[C@H]1O [Zebularine] + Cc1cc(Nc2cc(N3CCN(C)CC3)nc(Sc3ccc(NC(=O)C4CC4)cc3)n2)n[nH]1 [Tozasertib] (partner 0.1 µM)
In short: as §1

[4] = compound: O=c1ncccn1[C@@H]1O[C@H](CO)[C@@H](O)[C@H]1O [Zebularine] + O=C(CCCCCCC(=O)Nc1ccccc1)NO [Vorinostat] (partner 1 µM)
In short: as §1

Row | Cell Line | relative viability ([1]; first compound 0.04 µM) | relative viability ([1]; first compound 0.1265 µM) | relative viability ([1]; first compound 0.4 µM) | relative viability ([1]; first compound 1.265 µM) | relative viability ([1]; first compound 4 µM) | relative viability ([2]; first compound 0.04 µM) | relative viability ([2]; first compound 0.1265 µM) | relative viability ([2]; first compound 0.4 µM) | relative viability ([2]; first compound 1.265 µM) | relative viability ([2]; first compound 4 µM) | relative viability ([3]; first compound 1 µM) | relative viability ([3]; first compound 3.162 µM) | relative viability ([3]; first compound 10 µM) | relative viability ([3]; first compound 31.62 µM) | relative viability ([3]; first compound 100 µM) | relative viability ([4]; first compound 1 µM) | relative viability ([4]; first compound 3.162 µM) | relative viability ([4]; first compound 10 µM) | relative viability ([4]; first compound 31.62 µM) | relative viability ([4]; first compound 100 µM)
1 | NCI-H2405 | 0.952 | 0.863 | 0.836 | 0.94 | 0.795 | 0.788 | 0.693 | 0.733 | 0.777 | 0.726 | 0.758 | 0.81 | 0.704 | 0.724 | 0.485 | 1.2 | 0.981 | 0.894 | 1 | 0.826
2 | NCI-H358 | 0.772 | 0.598 | 0.475 | 0.456 | 0.213 | 0.201 | 0.195 | 0.202 | 0.21 | 0.229 | 0.111 | 0.101 | 0.0883 | 0.108 | 0.0887 | 0.837 | 0.696 | 0.327 | 0.358 | 0.223
3 | NCI-H1944 | 1.19 | 0.978 | 1.05 | 1.36 | 1.11 | 0.435 | 0.415 | 0.388 | 0.508 | 0.432 | 0.274 | 0.268 | 0.213 | 0.254 | 0.234 | 0.534 | 0.573 | 0.414 | 0.603 | 0.458
4 | EPLC-272H | 0.926 | 0.86 | 0.904 | 0.972 | 0.931 | 0.372 | 0.346 | 0.417 | 0.359 | 0.372 | 0.222 | 0.179 | 0.156 | 0.317 | 0.256 | 0.419 | 0.32 | – | 0.42 | 0.178
5 | NCI-H1915 | 0.932 | 0.835 | 0.962 | 0.935 | 0.881 | 0.267 | 0.247 | 0.285 | 0.234 | 0.271 | 0.558 | 0.44 | – | 0.533 | 0.385 | 0.538 | 0.53 | 0.412 | 0.607 | 0.585
6 | NCI-H596 | 0.97 | 0.982 | 0.981 | 1.01 | 1.16 | 1.06 | 0.857 | 0.956 | 1.14 | 0.999 | 0.847 | 1.1 | 0.618 | 0.958 | 0.845 | 0.628 | 0.598 | 0.358 | 0.577 | 0.612
7 | NCI-H322M | 0.924 | 0.822 | 0.795 | 1.05 | 0.651 | 0.721 | 0.631 | 0.68 | 0.655 | 0.729 | 0.494 | 0.486 | 0.372 | 0.47 | 0.465 | 0.946 | 0.873 | 1.21 | 0.945 | 0.537
8 | NCI-H647 | 1.05 | 1.03 | 1.12 | 1.2 | 0.799 | 0.386 | 0.339 | 0.481 | 0.455 | 0.537 | 0.284 | 0.353 | 0.152 | 0.144 | 0.265 | 0.481 | 0.586 | 0.165 | 0.165 | 0.12
9 | SK-MES-1 | 1.09 | 0.88 | 0.864 | 0.78 | 0.569 | 0.395 | 0.337 | 0.332 | 0.395 | 0.304 | 1.02 | 0.991 | 0.599 | 0.611 | 0.248 | 1.28 | 1.18 | 0.914 | 1.09 | 0.351
10 | NCI-H2170 | 1.31 | 1.06 | 1.24 | 1.24 | 1.06 | 0.515 | 0.384 | 0.457 | 0.445 | 0.402 | 0.815 | 0.708 | 0.655 | 0.636 | 0.285 | 0.886 | 0.842 | 0.533 | 0.868 | 0.581
11 | NCI-H2085 | 0.861 | 0.561 | 0.819 | 0.724 | 0.772 | 0.541 | 0.556 | 0.643 | 0.519 | 0.557 | 0.9 | 0.804 | 0.688 | 0.609 | 0.529 | 0.804 | 0.835 | 0.662 | 0.755 | 0.465
12 | SW 1573 | 1.01 | 0.808 | 0.876 | 0.905 | 0.597 | 0.653 | 0.497 | 0.473 | 0.372 | 0.26 | 0.223 | 0.163 | – | 0.137 | 0.148 | 0.964 | 0.689 | – | 0.772 | 0.521
13 | NCI-H727 | 0.986 | 0.672 | 0.938 | 0.922 | 0.853 | 1.02 | 0.883 | 0.909 | 0.921 | 1.01 | 0.639 | 0.645 | 0.602 | 0.623 | 0.386 | 1.18 | 1.14 | 0.971 | 1.26 | 1.08
14 | NCI-H441 | 1.01 | 0.696 | 0.925 | 0.738 | 0.448 | 0.249 | 0.273 | 0.275 | 0.255 | 0.312 | 0.825 | 0.711 | 0.334 | 0.221 | 0.344 | 1.03 | 0.908 | 0.404 | 0.317 | 0.362
15 | LOU-NH91 | 0.8 | 0.702 | 0.735 | 0.75 | 0.647 | 0.876 | 0.8 | 0.792 | 0.821 | 0.629 | 0.7 | 0.641 | 0.68 | 0.704 | 0.384 | 0.981 | 0.899 | 0.81 | 0.9 | 0.557
16 | NCI-H3122 | 0.283 | 0.275 | 0.293 | 0.28 | 0.325 | 0.51 | 0.333 | 0.478 | 0.427 | 0.508 | 0.391 | 0.401 | 0.262 | 0.626 | 0.375 | 1.14 | 0.937 | 0.792 | 1.09 | 0.996
